Values belong to the compound of their own block, whether it stands above or below them. The source made the active and inactive calls.
Tests used:
[1] = target: T1, Neuropeptide Y receptor type 2 (Homo sapiens, UniProt P49146); format: functional, cell-based;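 note: HEK293 cells expressing the receptor and a CNG channel; stimulus was NPY near EC95 followed by isoproterenol to raise cAMP; antagonist potency measured as restoring cAMP signal that NPY suppresses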
T1 sequence (P49146 whole entry): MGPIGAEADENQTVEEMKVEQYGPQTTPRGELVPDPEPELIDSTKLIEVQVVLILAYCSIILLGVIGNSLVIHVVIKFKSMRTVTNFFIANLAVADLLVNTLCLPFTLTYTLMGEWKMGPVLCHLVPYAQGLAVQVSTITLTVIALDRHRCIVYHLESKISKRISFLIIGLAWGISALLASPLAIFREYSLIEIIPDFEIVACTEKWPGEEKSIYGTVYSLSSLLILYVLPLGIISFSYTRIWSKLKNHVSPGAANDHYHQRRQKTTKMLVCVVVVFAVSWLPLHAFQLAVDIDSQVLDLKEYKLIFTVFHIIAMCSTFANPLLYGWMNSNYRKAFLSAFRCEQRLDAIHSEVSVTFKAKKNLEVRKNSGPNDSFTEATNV

[2] = target: T2, Neuropeptide Y receptor type 1 (Homo sapiens, UniProt P25929); format: functional;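 note: HEK293 cells with a CNG channel challenged with NPY then isoproterenol; potency as antagonist that reverses NPY suppression of cAMP signal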
T2 sequence (P25929 whole entry): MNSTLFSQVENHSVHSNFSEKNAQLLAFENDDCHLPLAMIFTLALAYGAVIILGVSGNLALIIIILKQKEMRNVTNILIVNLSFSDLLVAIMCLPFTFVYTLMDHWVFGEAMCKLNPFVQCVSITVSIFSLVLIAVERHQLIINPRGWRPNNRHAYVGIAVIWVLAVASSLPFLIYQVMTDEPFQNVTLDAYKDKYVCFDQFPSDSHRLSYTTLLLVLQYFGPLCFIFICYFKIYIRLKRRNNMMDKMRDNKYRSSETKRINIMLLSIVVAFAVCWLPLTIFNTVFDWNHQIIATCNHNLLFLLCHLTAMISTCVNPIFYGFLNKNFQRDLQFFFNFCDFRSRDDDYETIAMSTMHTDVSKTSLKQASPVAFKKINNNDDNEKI

[3] = target: T3, Heat shock 70 kDa protein 1A (Homo sapiens, UniProt P0DMV8); assay: Hsp70 inhibitors, probe displacement, primary screen, biochemical, fluorescence polarization (AID 583)
T3 sequence (P0DMV8 whole entry): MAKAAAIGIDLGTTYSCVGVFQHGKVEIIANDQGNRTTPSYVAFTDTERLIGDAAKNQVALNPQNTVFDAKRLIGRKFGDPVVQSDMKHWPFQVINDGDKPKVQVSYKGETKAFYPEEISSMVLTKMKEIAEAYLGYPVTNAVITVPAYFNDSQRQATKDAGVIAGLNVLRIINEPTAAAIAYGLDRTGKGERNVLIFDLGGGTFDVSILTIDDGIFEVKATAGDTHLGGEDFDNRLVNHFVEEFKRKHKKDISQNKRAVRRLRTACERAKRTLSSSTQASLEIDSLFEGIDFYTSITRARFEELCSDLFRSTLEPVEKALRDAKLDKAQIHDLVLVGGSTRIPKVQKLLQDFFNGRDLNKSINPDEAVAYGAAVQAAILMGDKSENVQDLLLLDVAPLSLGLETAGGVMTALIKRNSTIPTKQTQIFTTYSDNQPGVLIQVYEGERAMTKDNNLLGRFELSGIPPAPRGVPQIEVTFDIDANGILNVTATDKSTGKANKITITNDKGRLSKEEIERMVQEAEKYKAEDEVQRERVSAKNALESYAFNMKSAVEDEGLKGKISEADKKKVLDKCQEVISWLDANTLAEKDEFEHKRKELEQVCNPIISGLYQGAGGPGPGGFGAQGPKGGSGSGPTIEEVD

[4] = target: T3, Heat shock 70 kDa protein 1A; assay: Hsp70 inhibitors, biochemical, TR-FRET (AID 786)
[5] = target: T4, Dual specificity protein phosphatase 6 (Rattus norvegicus, UniProt Q64346); assay: MKP-3 phosphatase inhibitors, primary screen, biochemical, rat enzyme, in vitro (AID 425)
T4 sequence (Q64346 whole entry): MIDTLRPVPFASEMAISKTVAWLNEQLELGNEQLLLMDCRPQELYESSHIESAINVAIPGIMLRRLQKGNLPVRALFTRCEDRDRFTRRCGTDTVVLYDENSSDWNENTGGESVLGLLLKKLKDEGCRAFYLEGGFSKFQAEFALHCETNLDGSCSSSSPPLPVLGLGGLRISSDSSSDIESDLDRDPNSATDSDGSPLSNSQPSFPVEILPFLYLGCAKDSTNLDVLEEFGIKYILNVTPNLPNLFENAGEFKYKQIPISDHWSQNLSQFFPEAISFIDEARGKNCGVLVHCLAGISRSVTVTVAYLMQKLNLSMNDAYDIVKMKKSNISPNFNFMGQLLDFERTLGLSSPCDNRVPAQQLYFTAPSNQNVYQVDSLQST

Bcl-2-like protein 10 [6] = target: T5, Bcl-2-like protein 10 (Homo sapiens, UniProt Q9HD36); assay: displacers of TR3 peptide from Bcl-B, primary screen, selectivity assay for Bfl-1 inhibitor project, biochemical, fluorescence polarization, FITC-TR3 peptide (AID 748);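 note: fluorescence polarization from a fluorescein-labelled TR3 peptide binding purified Bcl-B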
T5 sequence (Q9HD36 whole entry): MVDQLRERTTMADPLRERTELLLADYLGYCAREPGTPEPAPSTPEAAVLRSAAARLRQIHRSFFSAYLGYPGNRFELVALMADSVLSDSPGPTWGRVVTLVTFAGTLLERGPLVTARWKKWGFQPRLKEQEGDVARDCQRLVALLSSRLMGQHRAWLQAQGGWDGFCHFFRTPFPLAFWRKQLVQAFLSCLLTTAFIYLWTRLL

Bcl-2-like protein 10 [7] = target: T5, Bcl-2-like protein 10; assay: Biochemical TR3 FP assay of Bcl-B inhibitor potency, EC50 (AID 1243); format: functional
[8] = target: Peroxisome proliferator-activated receptor gamma/Nuclear receptor coactivator 2 (Homo sapiens, UniProt P37231); format: functional;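 note: agonist potency for raising coactivator recruitment to the receptor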
Peroxisome proliferator-activated receptor gamma/Nuclear receptor coactivator 2, sequence (P37231 whole entry): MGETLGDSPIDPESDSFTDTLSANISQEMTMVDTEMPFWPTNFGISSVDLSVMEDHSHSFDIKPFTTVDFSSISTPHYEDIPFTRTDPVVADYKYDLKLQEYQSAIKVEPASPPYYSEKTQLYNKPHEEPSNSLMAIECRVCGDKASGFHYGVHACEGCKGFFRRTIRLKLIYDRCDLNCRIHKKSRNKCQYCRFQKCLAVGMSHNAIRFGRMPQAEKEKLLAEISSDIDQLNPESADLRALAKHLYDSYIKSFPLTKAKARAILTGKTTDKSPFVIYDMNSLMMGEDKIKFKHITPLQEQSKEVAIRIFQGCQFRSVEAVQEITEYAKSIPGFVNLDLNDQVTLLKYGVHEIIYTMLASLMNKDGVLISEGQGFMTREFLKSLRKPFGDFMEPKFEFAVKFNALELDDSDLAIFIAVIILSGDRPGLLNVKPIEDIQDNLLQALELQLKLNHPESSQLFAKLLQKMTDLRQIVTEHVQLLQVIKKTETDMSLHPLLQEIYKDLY
Peroxisome proliferator-activated receptor gamma/Nuclear receptor coactivator 2, sequence (Q15596 whole entry, further chain): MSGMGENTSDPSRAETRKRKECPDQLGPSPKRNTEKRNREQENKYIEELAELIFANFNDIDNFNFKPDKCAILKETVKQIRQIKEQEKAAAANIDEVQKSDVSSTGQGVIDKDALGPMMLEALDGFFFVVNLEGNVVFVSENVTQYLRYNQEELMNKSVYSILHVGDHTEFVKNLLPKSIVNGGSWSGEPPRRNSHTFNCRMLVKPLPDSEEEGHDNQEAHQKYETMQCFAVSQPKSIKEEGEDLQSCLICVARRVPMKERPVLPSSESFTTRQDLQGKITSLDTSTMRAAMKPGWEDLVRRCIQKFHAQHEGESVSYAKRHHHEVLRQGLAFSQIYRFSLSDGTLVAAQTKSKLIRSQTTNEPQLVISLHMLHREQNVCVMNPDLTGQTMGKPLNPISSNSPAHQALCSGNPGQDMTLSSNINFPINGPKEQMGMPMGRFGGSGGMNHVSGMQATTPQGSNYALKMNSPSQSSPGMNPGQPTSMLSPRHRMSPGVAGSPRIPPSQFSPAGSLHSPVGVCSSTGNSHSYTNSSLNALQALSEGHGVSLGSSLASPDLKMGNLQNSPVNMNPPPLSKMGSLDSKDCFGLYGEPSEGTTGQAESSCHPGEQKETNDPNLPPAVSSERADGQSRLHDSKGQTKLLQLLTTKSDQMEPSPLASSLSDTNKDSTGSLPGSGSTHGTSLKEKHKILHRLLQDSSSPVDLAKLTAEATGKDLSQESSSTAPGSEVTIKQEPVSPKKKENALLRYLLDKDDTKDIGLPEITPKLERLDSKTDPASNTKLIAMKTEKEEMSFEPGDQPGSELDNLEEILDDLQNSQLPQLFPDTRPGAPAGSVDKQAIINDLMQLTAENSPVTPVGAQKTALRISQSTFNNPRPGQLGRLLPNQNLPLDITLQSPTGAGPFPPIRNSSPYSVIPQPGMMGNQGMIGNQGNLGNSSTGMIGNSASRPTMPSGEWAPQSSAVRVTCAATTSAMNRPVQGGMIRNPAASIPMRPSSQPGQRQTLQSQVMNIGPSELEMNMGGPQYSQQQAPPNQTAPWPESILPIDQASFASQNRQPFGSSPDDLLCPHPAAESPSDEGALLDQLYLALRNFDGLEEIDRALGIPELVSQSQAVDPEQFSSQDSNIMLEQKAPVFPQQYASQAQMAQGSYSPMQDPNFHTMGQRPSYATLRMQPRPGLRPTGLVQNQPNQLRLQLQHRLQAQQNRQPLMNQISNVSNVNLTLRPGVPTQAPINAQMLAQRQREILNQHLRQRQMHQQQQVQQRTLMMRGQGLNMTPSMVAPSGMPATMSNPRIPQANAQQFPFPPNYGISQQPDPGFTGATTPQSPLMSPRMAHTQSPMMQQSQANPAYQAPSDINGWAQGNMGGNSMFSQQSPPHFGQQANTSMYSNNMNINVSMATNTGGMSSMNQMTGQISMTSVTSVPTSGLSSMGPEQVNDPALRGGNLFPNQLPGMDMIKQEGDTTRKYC

[9] = target: Peroxisome proliferator-activated receptor gamma/Nuclear receptor coactivator 1 (Homo sapiens, UniProt P37231); format: functional;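 note: agonist potency as compounds enhance coactivator SRC-1 recruitment to PPARgamma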
[10] = target: Peroxisome proliferator-activated receptor gamma/Nuclear receptor coactivator 3 (Homo sapiens, UniProt P37231); format: functional;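 note: agonist potency for raising coactivator recruitment to the receptor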
Peroxisome proliferator-activated receptor gamma/Nuclear receptor coactivator 3, sequence (P37231 whole entry, the tested form may be a part): as the sequence (P37231 whole entry) above
Peroxisome proliferator-activated receptor gamma/Nuclear receptor coactivator 3, sequence (Q9Y6Q9 whole entry, further chain, the tested form may be a part): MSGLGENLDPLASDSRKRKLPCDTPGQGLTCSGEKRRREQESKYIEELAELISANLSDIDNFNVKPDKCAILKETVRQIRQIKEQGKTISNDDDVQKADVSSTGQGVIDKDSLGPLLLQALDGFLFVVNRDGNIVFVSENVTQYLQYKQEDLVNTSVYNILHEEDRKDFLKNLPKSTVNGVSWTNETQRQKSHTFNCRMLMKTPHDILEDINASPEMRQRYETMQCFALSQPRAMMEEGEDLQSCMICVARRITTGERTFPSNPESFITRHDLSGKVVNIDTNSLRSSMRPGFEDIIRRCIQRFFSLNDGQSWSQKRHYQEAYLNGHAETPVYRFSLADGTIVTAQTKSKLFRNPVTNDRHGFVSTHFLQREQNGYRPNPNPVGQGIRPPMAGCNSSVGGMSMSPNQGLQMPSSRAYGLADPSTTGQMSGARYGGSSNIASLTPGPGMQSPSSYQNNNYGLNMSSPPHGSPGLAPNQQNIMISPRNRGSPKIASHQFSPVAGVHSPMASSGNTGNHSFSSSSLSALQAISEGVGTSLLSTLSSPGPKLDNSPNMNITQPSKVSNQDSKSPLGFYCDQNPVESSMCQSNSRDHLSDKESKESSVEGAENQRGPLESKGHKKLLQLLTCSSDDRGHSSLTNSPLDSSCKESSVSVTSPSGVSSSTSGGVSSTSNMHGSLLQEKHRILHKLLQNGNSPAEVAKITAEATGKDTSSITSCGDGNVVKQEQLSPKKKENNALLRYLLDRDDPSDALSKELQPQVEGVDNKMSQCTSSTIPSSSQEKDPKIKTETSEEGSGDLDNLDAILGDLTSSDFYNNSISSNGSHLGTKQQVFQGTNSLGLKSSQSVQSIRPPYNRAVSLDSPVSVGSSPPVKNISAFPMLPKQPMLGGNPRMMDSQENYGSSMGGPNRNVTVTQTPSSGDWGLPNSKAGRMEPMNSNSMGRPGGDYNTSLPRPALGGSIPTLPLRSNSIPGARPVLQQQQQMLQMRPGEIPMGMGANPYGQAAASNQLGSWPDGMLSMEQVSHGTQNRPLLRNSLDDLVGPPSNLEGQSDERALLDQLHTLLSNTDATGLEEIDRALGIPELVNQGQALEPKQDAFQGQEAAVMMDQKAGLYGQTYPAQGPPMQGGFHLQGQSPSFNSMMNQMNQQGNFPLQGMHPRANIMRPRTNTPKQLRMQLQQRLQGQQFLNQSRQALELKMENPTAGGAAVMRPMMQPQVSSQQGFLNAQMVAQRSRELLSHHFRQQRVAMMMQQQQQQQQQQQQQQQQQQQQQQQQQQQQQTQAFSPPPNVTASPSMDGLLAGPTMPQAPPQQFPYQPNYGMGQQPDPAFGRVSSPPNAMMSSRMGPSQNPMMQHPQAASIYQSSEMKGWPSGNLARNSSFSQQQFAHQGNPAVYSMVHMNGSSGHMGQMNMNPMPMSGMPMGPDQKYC

[11] = HIV-1 Env-mediated cell fusion inhibitors, dose response, CCR5-tropic Env (AID 2279); format: functional
[12] = growth suppression of PTEN-null colon cells, dose response, cell-based, HCT116 PTEN knockout (AID 1047); format: functional;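 note: HCT116 colon tumor cells with PTEN knocked out; cells exposed to compound for 60 hours before readout; potency for loss of cell viability measured by luminescence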
[13] = Luminescence Cell-Based Dose Retest to Confirm Inhibitors of Cancer Stem Cells. [Related pubchem assays (depositor defined):AID2717, AID2721]; format: functional; conditions: Homo sapiens
[14] = growth suppression of beta-catenin-knockout colon cells, dose response, cell-based, HCT116, human colon tumor (AID 1045); format: functional;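 note: HCT116 colon tumor cells with beta catenin knocked out; cells exposed to compound for 60 hours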
[15] = target: T6, Corticotropin-releasing factor receptor 2/Corticotropin-releasing factor-binding protein (Homo sapiens, UniProt P24387+Q13324); assay: activators of CRF receptor 2 with binding protein – uHTS hits, confirmation (AID 602473); format: functional; conditions: read-out: EC50_Mean
T6 sequence (Q13324 whole entry): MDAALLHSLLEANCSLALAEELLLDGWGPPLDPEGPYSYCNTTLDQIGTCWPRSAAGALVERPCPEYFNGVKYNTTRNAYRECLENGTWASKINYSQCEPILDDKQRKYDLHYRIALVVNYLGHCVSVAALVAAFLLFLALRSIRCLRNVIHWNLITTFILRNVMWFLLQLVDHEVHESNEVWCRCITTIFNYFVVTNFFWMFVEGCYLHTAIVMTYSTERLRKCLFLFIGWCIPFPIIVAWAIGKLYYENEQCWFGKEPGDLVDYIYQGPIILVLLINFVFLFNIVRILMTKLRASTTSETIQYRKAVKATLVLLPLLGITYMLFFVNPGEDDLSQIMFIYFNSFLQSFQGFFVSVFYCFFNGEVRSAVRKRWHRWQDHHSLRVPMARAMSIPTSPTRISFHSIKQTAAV
T6 sequence (P24387 whole entry): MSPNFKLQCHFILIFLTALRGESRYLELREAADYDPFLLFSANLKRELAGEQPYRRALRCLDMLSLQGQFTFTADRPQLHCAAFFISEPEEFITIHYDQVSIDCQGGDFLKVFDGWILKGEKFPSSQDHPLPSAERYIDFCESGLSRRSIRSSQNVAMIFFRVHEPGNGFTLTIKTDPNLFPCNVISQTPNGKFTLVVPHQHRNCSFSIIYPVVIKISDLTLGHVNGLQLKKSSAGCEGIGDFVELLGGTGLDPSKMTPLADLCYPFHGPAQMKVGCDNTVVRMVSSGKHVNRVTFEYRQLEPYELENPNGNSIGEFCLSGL

[16] = target: T7, High affinity choline transporter 1 (Homo sapiens, UniProt Q9GZV3); assay: CHT inhibitors, dose response, cell-based, 5-point CRC, membrane potential dye (AID 504840); format: functional
T7 sequence (Q9GZV3 whole entry): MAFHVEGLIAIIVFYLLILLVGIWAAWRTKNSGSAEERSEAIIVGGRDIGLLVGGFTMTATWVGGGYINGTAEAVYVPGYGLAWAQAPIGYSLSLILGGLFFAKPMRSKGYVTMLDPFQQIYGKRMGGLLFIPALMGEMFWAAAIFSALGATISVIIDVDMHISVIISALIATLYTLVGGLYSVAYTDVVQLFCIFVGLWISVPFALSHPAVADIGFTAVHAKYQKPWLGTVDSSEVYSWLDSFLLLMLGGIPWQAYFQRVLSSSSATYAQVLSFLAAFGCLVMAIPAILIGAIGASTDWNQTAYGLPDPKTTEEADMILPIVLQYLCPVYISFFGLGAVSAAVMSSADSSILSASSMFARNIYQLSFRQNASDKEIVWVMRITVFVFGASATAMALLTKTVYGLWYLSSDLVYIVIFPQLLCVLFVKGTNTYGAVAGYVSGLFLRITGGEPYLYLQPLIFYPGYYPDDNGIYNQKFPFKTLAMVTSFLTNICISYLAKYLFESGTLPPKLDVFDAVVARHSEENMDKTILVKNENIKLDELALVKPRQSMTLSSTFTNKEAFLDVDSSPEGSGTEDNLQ

Mucolipin-3 = Mucolipin-3 (Homo sapiens, UniProt Q8TDD5); assay: Dose response cell-based high-throughput screening assay for agonists of the transient receptor potential channel ML3 (TRPML3). [Related pubchem assays: 1526, 1424, 1448 ]; format: functional
Mucolipin-3, sequence (Q8TDD5 whole entry): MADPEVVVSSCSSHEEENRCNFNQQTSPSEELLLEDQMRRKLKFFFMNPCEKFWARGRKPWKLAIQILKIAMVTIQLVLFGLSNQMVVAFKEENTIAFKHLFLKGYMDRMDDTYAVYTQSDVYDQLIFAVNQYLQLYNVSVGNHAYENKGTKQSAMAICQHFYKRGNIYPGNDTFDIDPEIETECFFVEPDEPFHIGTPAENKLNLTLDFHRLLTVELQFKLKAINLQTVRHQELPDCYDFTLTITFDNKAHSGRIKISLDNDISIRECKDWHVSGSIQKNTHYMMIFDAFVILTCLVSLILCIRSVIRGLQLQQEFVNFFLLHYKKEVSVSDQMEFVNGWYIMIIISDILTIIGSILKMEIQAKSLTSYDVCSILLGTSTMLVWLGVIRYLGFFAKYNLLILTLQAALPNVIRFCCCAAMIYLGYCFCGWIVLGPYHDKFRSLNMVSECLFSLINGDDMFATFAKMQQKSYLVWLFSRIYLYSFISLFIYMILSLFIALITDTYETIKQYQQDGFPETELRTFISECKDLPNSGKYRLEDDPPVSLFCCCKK

Ion channel NompC = Ion channel NompC (Danio rerio, UniProt Q7T1G6); assay: Fluorescence counterscreen assay for TRPML3 agonists: dose response cell-based high-throughput screening assay to identify agonists of the transient receptor potential channel N1 (TRPN1). [Related pubchem assays: 1526, 1424, 1448 ]; format: functional
[17] = target: T8, Short transient receptor potential channel 4 (Mus musculus, UniProt Q9QUQ5); assay: mouse TRPC4 channel activators, dose response, cell-based, HEK293 TRPC4/mu-opioid, Fluo-4 calcium (AID 434937); format: functional
T8 sequence (Q9QUQ5 whole entry): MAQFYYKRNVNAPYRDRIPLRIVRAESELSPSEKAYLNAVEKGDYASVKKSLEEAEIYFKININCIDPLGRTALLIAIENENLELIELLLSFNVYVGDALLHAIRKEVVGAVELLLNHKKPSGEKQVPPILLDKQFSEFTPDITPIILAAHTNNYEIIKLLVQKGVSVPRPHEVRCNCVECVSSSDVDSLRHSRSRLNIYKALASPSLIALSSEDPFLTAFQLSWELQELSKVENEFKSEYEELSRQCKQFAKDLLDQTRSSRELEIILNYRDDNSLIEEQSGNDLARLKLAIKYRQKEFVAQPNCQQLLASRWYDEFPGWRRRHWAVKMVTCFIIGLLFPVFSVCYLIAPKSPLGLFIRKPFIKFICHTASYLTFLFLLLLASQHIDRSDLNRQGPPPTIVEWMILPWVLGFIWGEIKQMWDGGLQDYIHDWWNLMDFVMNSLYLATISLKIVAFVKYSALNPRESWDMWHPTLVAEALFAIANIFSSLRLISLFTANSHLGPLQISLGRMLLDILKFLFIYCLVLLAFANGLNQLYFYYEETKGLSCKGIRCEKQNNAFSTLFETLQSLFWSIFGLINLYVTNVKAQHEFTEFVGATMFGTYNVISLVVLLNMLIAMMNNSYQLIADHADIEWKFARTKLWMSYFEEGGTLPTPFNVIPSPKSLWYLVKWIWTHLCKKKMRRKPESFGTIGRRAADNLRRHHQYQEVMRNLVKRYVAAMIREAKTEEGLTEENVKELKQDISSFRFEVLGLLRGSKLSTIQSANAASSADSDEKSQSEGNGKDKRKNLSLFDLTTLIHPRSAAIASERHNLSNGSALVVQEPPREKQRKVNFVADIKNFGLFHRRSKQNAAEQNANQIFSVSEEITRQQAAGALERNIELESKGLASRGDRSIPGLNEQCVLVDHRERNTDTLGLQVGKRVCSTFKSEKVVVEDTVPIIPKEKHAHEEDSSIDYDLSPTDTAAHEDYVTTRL
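Throughout, for AC50: cells exposed to compound for roughly 70 hours or longer before luminescence read.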

SMILES: Clc1ccc(CSc2cc3c(nn2)-c2ccccc2CC3)cc1Cl
IC50 [1]: 6.88 µM (active)
IC50 [2]: 5.27 µM (active)

SMILES: O=C(O)CCn1cc(/C=C/C(=O)c2ccc(Cl)cc2)c(-c2ccc(Br)cc2)n1
IC50 [11]: 22.7 µM (active)
EC50 [12]: 15.9 µM (active)
AC50 [13]: 5.62 µM (active)
EC50 [14]: 15.5 µM (active)

Results, then the compound that gave them:

IC50 [3]: 48.3 µM (active)
IC50 [4]: 18.5 µM (active)
IC50 [5]: > 10 µM (not active)
IC50 (Bcl-2-like protein 10 [6]): 1.13 µM (active)
SMILES: Cc1ccc(C)n1-c1cccc(C(=O)O)c1

EC50 (Bcl-2-like protein 10 [7]): 0.94 µM (active)
SMILES: Cc1ccc(C)n1-c1ccc(Cl)cc1C(=O)O

EC50 [8]: > 79.4 µM (not active)
EC50 [9]: > 79.4 µM (not active)
EC50 [10]: > 79.4 µM (not active)
SMILES: Brc1ccc(-c2csc(N/N=C/c3ccco3)n2)cc1

EC50 [15]: 12.2 µM (active)
IC50 [16]: 28.8 µM (active)
EC50 (Mucolipin-3): 5.99 µM (active)
EC50 (Ion channel NompC): 5.44 µM (active)
EC50 [17]: 5.31 µM (active)
SMILES: O=C(NC(=S)NNC(=O)c1cccs1)c1ccc(Br)o1

Source: ChEMBL document CHEMBL1201862, “PubChem BioAssay data set” (2004)
